Experimental data from ChEMBL document CHEMBL4411260, “Dual Inhibition of TYK2 and JAK1 for the Treatment of Autoimmune Diseases: Discovery of (( S)-2,2-Difluorocyclopropyl)((1 R,5 S)-3-(2-((1-methyl-1 H-pyrazol-4-yl)amino)pyrimidin-4-yl)-3,8-diazabicyclo[3.2.1]octan-8-yl)methanone (PF-06700841)” (J Med Chem, 2018).

What was measured:
[1] = biological target: Non-receptor tyrosine-protein kinase TNK1 (Homo sapiens) (UniProt Q13470); experiment: Inhibition of N-terminal GST tagged human TNK1 (106 to 390 residues) catalytic domain expressed in baculovirus expression system at 1 uM in presence of ATP at its Km level relative to control
Sequence of Non-receptor tyrosine-protein kinase TNK1 (Homo sapiens) (Q13470 whole entry, the tested form may be a part): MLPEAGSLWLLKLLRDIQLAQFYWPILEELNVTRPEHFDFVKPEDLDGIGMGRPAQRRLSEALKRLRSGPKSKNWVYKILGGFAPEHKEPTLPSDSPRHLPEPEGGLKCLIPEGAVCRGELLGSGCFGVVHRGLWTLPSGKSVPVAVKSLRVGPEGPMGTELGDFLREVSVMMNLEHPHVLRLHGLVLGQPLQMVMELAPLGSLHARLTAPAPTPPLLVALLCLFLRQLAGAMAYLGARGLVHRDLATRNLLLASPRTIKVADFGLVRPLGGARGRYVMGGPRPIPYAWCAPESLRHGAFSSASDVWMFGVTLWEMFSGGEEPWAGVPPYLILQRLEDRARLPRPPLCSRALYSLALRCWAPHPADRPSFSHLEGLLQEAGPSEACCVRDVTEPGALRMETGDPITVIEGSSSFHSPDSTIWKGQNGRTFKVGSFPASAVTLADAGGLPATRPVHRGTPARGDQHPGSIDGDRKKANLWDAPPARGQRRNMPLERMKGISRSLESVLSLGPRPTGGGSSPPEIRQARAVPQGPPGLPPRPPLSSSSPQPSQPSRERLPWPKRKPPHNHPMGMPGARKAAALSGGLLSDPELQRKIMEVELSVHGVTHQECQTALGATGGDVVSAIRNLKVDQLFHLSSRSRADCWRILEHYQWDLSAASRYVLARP

[2] = biological target: T1, Tyrosine-protein kinase JAK1 (Homo sapiens, UniProt P23458); experiment: Inhibition of N-terminal GST tagged human JAK1 (850 to 1154 end residues) catalytic domain expressed in baculovirus expression system at 1 uM in presence of 1 mM ATP relative to control
T1 sequence (P23458 whole entry, the tested form may be a part): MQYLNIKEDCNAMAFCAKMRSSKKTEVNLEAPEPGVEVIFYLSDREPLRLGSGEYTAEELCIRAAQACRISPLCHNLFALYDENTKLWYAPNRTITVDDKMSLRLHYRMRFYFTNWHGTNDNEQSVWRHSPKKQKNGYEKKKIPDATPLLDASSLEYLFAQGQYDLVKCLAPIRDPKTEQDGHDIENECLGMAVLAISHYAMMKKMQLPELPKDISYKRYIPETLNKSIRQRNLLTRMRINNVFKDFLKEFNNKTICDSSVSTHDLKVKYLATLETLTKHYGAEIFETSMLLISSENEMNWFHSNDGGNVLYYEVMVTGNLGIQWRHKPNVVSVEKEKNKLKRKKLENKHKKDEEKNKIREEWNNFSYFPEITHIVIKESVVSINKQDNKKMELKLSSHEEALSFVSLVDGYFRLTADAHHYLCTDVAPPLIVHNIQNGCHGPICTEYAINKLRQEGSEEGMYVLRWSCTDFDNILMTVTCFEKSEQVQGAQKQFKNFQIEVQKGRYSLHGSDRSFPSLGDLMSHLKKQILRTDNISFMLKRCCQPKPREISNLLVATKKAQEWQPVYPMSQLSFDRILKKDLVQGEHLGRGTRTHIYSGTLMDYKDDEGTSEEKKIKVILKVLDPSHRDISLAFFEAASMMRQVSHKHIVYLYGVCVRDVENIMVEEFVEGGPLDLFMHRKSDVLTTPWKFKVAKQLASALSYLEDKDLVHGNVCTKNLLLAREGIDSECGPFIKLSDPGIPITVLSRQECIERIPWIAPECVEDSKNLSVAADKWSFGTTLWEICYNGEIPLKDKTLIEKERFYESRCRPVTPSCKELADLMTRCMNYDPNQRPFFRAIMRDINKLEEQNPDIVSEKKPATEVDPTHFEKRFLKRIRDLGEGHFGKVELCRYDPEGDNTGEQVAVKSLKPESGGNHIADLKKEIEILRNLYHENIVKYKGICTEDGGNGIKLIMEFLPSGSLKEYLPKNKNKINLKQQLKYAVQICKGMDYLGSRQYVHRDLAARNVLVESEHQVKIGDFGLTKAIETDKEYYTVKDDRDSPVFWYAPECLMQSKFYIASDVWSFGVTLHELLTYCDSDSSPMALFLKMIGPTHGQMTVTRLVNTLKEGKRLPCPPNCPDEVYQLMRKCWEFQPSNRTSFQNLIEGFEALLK

[3] = biological target: MAP/microtubule affinity-regulating kinase 4 (Homo sapiens) (UniProt Q96L34); experiment: Inhibition of N-terminal GST tagged full length human MARK4 (1 to 688 end residues) expressed in baculovirus expression system at 1 uM in presence of ATP at its Km level relative to control
[4] = biological target: Activated CDC42 kinase 1 (Homo sapiens) (UniProt Q07912); experiment: Inhibition of N-terminal GST tagged human ACK (110 to 476 residues) catalytic domain expressed in baculovirus expression system at 1 uM in presence of ATP at its Km level relative to control
Rattus norvegicus = experiment: Antiarthritic activity in complete freund's adjuvant-induced Lewis rat arthritis model assessed as reduction in paw volume administered orally as once daily dose via gavage treated for 7 consecutive days by plethysmography; format: functional, organism-based
[5] = biological target: Platelet-derived growth factor receptor beta (Homo sapiens) (UniProt P09619); experiment: Inhibition of N-terminal GST tagged human PDGFRbeta (557 to 1106 end residues) cytoplasmic domain expressed in baculovirus expression system at 1 uM in presence of ATP at its Km level relative to control
[6] = biological target: T2, Non-receptor tyrosine-protein kinase TYK2 (Homo sapiens, UniProt P29597); experiment: Inhibition of N-terminal GST tagged human TYK2 (871 to 1187 end residues) catalytic domain expressed in baculovirus expression system at 1 uM in presence of 1 mM ATP relative to control
T2 sequence (P29597 whole entry, the tested form may be a part): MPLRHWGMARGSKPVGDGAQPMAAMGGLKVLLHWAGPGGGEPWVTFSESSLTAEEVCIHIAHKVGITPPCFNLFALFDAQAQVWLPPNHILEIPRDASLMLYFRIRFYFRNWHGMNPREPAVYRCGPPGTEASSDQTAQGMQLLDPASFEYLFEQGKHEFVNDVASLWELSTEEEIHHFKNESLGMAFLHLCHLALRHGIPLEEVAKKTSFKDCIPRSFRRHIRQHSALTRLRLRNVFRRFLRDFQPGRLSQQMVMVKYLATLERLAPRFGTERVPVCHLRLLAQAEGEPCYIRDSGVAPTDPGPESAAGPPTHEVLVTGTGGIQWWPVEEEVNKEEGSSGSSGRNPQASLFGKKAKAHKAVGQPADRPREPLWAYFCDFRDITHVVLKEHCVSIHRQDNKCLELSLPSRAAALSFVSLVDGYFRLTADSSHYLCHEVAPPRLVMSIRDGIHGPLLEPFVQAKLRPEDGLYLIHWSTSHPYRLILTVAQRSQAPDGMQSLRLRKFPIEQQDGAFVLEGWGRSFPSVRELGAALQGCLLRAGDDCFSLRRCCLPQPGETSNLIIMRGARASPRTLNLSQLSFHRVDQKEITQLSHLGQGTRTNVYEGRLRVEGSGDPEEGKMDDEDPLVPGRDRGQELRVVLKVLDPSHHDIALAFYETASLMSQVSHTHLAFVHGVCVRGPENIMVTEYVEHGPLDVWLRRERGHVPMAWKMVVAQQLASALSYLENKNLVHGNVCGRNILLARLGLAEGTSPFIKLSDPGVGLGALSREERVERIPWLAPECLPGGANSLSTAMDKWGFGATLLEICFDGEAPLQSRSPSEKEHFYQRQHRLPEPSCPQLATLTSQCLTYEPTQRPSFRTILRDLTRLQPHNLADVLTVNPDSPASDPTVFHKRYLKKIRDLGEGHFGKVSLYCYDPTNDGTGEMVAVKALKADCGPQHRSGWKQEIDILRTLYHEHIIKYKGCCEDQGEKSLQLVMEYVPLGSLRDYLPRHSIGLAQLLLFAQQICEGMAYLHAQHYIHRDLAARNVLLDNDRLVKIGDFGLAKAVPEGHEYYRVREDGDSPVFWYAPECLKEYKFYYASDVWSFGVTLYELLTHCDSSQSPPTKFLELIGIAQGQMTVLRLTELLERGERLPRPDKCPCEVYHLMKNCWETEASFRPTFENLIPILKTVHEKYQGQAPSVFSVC

[7] = biological target: Non-receptor tyrosine-protein kinase TNK1 (Homo sapiens) (UniProt Q13470); experiment: Inhibition of N-terminal GST tagged human TNK1 (106 to 390 residues) catalytic domain expressed in baculovirus expression system at 1 uM in presence of 1 mM ATP relative to control
[8] = biological target: T3, Tyrosine-protein kinase JAK2 (Homo sapiens, UniProt O60674); experiment: Inhibition of N-terminal His tagged human JAK2 (826 to 1132 end residues) catalytic domain expressed in baculovirus expression system at 1 uM in presence of 1 mM ATP relative to control
T3 sequence (O60674 whole entry, the tested form may be a part): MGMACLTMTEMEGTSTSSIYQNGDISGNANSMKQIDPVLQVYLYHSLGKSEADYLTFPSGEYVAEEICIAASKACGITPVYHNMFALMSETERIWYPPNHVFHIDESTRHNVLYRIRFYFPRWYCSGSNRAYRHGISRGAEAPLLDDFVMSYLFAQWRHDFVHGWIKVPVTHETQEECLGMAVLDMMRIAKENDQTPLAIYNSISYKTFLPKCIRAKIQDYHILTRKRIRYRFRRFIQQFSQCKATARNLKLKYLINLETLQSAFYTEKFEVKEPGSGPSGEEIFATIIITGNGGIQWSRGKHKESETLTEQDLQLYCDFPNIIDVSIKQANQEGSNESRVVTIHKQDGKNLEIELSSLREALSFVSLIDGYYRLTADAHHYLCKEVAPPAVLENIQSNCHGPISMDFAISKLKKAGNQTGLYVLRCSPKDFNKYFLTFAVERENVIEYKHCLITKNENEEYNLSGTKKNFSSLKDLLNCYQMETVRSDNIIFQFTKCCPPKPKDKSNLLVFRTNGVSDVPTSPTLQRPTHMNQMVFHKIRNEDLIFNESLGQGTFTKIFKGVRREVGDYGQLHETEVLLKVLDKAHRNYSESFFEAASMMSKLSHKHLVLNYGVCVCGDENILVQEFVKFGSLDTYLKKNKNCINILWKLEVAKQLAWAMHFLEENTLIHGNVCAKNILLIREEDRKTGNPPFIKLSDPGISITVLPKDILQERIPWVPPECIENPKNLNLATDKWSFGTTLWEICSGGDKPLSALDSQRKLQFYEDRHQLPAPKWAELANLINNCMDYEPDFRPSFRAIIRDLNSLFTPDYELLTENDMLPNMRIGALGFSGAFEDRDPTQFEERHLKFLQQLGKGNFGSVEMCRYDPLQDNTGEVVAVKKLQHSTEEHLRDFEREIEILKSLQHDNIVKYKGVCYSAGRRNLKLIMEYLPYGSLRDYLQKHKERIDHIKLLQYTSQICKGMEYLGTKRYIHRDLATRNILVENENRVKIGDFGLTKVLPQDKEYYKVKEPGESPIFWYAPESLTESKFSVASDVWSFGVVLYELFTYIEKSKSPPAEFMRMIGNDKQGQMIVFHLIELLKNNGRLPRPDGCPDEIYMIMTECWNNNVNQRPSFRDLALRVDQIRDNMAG

[9] = biological target: Serine/threonine-protein kinase SIK2 (Homo sapiens) (UniProt Q9H0K1); experiment: Inhibition of N-terminal GST tagged full length human QIK (1 to 926 end residues) expressed in baculovirus expression system at 1 uM in presence of ATP at its Km level relative to control
[10] = biological target: MAP/microtubule affinity-regulating kinase 3 (Homo sapiens) (UniProt P27448); experiment: Inhibition of N-terminal GST tagged full length human MARK3 (1 to 729 end residues) expressed in baculovirus expression system at 1 uM in presence of ATP at its Km level relative to control
[11] = biological target: Platelet-derived growth factor receptor alpha (Homo sapiens) (UniProt P16234); experiment: Inhibition of N-terminal GST tagged human PDGFRalpha (550 to 1089 end residues) cytoplasmic domain expressed in baculovirus expression system at 1 uM in presence of ATP at its Km level relative to control
[12] = biological target: Aurora kinase A (Homo sapiens) (UniProt O14965); experiment: Inhibition of N-terminal GST tagged full length human AurA (1 to 403 end residues) expressed in baculovirus expression system at 1 uM in presence of ATP at its Km level relative to control
[13] = biological target: T1, Tyrosine-protein kinase JAK1; experiment: Inhibition of N-terminal GST tagged human JAK1 (850 to 1154 end residues) catalytic domain expressed in baculovirus expression system at 1 uM in presence of ATP at its Km level relative to control
[14] = biological target: T3, Tyrosine-protein kinase JAK2; experiment: Inhibition of N-terminal His tagged human JAK2 (826 to 1132 end residues) catalytic domain expressed in baculovirus expression system at 1 uM in presence of ATP at its Km level relative to control
[15] = biological target: Dual specificity mitogen-activated protein kinase kinase 5 (Homo sapiens) (UniProt Q13163); experiment: Inhibition of N-terminal GST tagged full length human MAP2K5 (1 to 448 end residues) co-expressing His tagged MAP3K3/ CDC37/HSP90 expressed in baculovirus expression system at 1 uM in presence of ATP at its Km level relative to control
[16] = biological target: NUAK family SNF1-like kinase 1 (Homo sapiens) (UniProt O60285); experiment: Inhibition of N-terminal GST tagged full length human Nuak1 (1 to 661 end residues) expressed in baculovirus expression system at 1 uM in presence of ATP at its Km level relative to control
[17] = system: Platelet-derived growth factor receptor alpha (Homo sapiens), P16234 [V561D]; experiment: Inhibition of N-terminal GST tagged human PDGFRalpha (550 to 1089 end residues) catalytic domain V561D mutant expressed in baculovirus expression system at 1 uM in presence of ATP at its Km level relative to control
[18] = biological target: T2, Non-receptor tyrosine-protein kinase TYK2; experiment: Inhibition of N-terminal GST tagged human TYK2 (871 to 1187 end residues) catalytic domain expressed in baculovirus expression system at 1 uM in presence of ATP at its Km level relative to control
[19] = system: Platelet-derived growth factor receptor alpha (Homo sapiens), P16234 [T674I]; experiment: Inhibition of N-terminal GST tagged human PDGFRalpha (550 to 1089 end residues) catalytic domain T674I mutant expressed in baculovirus expression system at 1 uM in presence of ATP at its Km level relative to control
[20] = biological target: Macrophage colony-stimulating factor 1 receptor (Homo sapiens) (UniProt P07333); experiment: Inhibition of N-terminal GST tagged human FMS (538 to 972 end residues) cytoplasmic domain expressed in baculovirus expression system at 1 uM in presence of ATP at its Km level relative to control
[21] = biological target: Serine/threonine-protein kinase SIK1 (Homo sapiens) (UniProt P57059); experiment: Inhibition of N-terminal GST tagged full length human SIK (1 to 783 end residues) expressed in baculovirus expression system at 1 uM in presence of ATP at its Km level relative to control
Sequence of Serine/threonine-protein kinase SIK1 (Homo sapiens) (P57059 whole entry, the tested form may be a part): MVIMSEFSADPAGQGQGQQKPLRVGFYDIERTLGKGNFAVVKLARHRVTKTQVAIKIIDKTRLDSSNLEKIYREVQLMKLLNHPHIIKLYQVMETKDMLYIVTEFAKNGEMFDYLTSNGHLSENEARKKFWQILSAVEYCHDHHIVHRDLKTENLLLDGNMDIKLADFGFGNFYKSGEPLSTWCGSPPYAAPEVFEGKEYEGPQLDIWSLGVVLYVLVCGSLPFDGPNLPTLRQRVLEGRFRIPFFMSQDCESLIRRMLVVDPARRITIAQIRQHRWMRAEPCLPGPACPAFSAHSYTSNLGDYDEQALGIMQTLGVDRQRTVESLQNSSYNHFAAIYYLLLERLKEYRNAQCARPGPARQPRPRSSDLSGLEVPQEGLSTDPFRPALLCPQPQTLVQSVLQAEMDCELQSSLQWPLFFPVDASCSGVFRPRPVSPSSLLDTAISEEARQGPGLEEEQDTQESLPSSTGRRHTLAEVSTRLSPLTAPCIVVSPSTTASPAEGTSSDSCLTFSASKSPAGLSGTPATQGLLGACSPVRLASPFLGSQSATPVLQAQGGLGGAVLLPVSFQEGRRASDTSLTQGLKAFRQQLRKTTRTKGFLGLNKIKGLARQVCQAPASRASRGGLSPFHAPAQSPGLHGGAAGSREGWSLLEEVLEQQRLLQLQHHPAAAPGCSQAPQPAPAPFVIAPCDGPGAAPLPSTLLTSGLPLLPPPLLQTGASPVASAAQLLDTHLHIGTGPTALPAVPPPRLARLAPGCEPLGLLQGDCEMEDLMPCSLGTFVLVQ

[22] = biological target: Mitogen-activated protein kinase 7 (Homo sapiens) (UniProt Q13164); experiment: Inhibition of N-terminal GST tagged human ERK5 (1 to 398 residues) cytoplasmic domain expressed in Escherichia coli at 1 uM in presence of ATP at its Km level relative to control
[23] = biological target: Tyrosine-protein kinase JAK3 (Homo sapiens) (UniProt P52333); experiment: Inhibition of N-terminal His tagged human JAK3 (795 to 1124 end residues) catalytic domain expressed in baculovirus expression system at 1 uM in presence of ATP at its Km level relative to control
[24] = biological target: MAP kinase-interacting serine/threonine-protein kinase 2 (Homo sapiens) (UniProt Q9HBH9); experiment: Inhibition of N-terminal GST tagged full length human MNK2 (1 to 465 end residues) expressed in baculovirus expression system at 1 uM in presence of ATP at its Km level relative to control

## Cn1cc(Nc2nccc(N3CC4CC[C@H](C3)N4C(=O)[C@@H]3CC3(F)F)n2)cn1 (single isomer, unassigned)
[1]
  inhibition: 94%
[2]
  inhibition: 96%
[3]
  inhibition: 59%
[4]
  inhibition: 82%
Rattus norvegicus
  Activity: Dose-dependent effect
[5]
  inhibition: 66%
[6]
  inhibition: 98%
[7]
  inhibition: 64%
[8]
  inhibition: 94%
[9]
  inhibition: 91%
[10]
  inhibition: 50%
[11]
  inhibition: 70%
[12]
  inhibition: 62%
[13]
  inhibition: 101%
[14]
  inhibition: 101%
[15]
  inhibition: 70%
[16]
  inhibition: 60%
[17]
  inhibition: 60%
[18]
  inhibition: 101%
[19]
  inhibition: 78%
[20]
  inhibition: 59%
[21]
  inhibition: 77%
[22]
  inhibition: 63%
[23]
  inhibition: 92%
[24]
  inhibition: 68%
